According to ChEMBL document CHEMBL5465560, “Selectivity Literature for EUbOPEN Chemogenomic Library” (2024):

Experiments:
[1] = molecular target: Serine/threonine-protein kinase 16 (Homo sapiens, UniProt O75716); test: Selectivity interaction (KinomeScan (DiscoverX)) EUB0000045b STK16
[2] = molecular target: LIM domain kinase 1 (Homo sapiens) (UniProt P53667); test: Selectivity interaction (KinomeScan (DiscoverX)) EUB0000695a LIMK1; details: at 100 nM
[3] = molecular target: T1, Serine/threonine-protein kinase NLK (Homo sapiens) (UniProt Q9UBE8); test: Selectivity interaction (KinomeScan (DiscoverX)) EUB0001079a NLK; details: at 1 µM
T1 sequence (whole entry): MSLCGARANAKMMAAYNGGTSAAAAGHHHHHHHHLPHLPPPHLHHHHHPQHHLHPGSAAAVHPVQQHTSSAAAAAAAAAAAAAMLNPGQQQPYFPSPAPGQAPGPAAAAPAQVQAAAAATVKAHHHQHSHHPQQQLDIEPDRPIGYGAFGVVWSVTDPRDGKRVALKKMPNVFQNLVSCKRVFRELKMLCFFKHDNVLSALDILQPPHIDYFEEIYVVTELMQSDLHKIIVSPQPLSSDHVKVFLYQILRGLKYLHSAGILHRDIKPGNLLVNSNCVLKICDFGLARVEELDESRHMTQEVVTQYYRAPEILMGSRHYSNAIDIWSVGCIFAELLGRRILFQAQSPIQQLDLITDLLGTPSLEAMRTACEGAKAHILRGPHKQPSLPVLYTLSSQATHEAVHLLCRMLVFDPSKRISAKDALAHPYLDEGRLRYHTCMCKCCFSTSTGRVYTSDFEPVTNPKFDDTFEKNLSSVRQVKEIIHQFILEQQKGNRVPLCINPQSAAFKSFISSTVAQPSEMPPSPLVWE

[4] = molecular target: T2, cAMP-dependent protein kinase catalytic subunit PRKX (Homo sapiens) (UniProt P51817); test: Selectivity interaction (KinomeScan (DiscoverX)) EUB0001079a PRKX; details: at 1 µM
T2 sequence (whole entry): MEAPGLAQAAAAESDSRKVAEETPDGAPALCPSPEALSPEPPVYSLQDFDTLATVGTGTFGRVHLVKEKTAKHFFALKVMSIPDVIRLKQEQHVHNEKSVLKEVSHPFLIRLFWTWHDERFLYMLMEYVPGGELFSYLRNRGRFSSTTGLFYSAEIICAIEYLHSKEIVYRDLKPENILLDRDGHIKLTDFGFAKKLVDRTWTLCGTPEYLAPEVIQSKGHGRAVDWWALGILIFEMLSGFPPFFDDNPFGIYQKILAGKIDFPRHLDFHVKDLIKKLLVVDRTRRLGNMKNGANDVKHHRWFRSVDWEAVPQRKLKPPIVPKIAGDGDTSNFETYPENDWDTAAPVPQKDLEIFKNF

[5] = molecular target: Dual specificity mitogen-activated protein kinase kinase 2 (Homo sapiens) (UniProt P36507); test: Selectivity interaction (KinomeScan (DiscoverX)) EUB0000666a MAP2K2; details: at 10 µM
[6] = molecular target: Serine/threonine-protein kinase 38-like (Homo sapiens) (UniProt Q9Y2H1); test: Selectivity interaction (KinomeScan (DiscoverX)) EUB0001049a STK38L; details: at 1 µM
[7] = molecular target: Mitogen-activated protein kinase 14 (Homo sapiens, UniProt Q16539)
[8] = molecular target: Serine/threonine-protein kinase 26 (Homo sapiens, UniProt Q9P289); details: at 1 µM
[9] = molecular target: Casein kinase I isoform gamma-3 (Homo sapiens) (UniProt Q9Y6M4); test: Selectivity interaction (KinomeScan (DiscoverX)) EUB0000655a CSNK1G3; details: at 10 µM
[10] = molecular target: T3, Serine/threonine-protein kinase ICK (Homo sapiens) (UniProt Q9UPZ9); test: Selectivity interaction (KinomeScan (DiscoverX)) EUB0000655a ICK; details: at 10 µM
T3 sequence (whole entry): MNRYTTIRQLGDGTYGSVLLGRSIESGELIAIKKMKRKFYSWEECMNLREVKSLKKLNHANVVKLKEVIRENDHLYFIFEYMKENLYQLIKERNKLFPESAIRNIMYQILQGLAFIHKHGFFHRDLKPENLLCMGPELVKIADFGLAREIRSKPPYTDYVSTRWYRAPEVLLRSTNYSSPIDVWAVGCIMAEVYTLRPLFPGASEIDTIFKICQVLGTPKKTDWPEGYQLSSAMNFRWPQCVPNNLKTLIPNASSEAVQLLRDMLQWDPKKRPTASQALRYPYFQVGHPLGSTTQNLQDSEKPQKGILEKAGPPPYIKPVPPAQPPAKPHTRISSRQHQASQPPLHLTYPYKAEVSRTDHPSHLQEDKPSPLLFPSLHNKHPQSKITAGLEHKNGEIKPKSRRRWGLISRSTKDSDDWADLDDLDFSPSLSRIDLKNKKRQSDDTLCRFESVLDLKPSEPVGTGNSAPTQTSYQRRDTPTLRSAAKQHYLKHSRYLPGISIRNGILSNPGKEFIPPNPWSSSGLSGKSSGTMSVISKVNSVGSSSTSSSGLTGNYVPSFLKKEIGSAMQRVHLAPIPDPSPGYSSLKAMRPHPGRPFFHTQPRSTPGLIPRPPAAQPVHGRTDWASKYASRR

Serine/threonine-protein kinase 16, sequence (O75716 whole entry, the tested form may be a part): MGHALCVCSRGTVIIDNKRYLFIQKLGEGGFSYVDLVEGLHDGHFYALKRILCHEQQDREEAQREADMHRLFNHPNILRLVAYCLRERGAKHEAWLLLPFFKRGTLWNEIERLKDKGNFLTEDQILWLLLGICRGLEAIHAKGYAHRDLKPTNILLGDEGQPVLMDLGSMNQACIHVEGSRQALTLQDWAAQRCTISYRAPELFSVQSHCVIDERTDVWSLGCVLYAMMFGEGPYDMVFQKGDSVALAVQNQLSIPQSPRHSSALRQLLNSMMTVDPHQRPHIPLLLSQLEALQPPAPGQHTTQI
LIM domain kinase 1 (Homo sapiens), sequence (P53667 whole entry, looked up, the tested form may be a part): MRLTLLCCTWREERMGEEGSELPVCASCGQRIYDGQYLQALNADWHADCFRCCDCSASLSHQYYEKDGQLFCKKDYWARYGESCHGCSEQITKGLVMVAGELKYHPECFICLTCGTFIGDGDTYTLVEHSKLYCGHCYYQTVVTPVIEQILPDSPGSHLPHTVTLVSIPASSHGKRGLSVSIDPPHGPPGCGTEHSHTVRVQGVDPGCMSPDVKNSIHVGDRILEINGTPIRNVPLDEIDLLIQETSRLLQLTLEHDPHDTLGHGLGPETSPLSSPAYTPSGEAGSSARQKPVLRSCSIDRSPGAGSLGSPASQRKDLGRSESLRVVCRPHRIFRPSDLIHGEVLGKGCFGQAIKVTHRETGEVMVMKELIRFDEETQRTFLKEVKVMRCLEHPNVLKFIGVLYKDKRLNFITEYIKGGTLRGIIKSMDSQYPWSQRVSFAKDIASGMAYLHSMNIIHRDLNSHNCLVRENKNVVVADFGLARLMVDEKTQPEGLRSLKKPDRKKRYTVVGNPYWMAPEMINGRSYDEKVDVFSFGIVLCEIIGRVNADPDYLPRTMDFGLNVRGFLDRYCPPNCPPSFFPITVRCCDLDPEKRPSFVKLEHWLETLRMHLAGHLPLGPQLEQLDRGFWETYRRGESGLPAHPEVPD
Casein kinase I isoform gamma-3 (Homo sapiens), sequence (Q9Y6M4 whole entry, looked up, canonical isoform): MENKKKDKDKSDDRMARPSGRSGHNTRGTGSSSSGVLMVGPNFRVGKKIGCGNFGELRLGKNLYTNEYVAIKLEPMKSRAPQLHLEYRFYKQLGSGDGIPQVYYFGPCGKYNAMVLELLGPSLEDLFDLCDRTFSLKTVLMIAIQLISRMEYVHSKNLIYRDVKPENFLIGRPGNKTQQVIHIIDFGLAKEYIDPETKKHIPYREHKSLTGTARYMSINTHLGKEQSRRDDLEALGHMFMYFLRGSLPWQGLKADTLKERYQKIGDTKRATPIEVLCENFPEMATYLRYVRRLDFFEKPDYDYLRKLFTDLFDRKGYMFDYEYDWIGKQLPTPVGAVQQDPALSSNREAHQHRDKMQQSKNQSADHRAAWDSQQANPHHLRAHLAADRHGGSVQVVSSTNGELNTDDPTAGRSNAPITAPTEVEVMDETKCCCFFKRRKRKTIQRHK
Mitogen-activated protein kinase 14, sequence (Q16539 whole entry): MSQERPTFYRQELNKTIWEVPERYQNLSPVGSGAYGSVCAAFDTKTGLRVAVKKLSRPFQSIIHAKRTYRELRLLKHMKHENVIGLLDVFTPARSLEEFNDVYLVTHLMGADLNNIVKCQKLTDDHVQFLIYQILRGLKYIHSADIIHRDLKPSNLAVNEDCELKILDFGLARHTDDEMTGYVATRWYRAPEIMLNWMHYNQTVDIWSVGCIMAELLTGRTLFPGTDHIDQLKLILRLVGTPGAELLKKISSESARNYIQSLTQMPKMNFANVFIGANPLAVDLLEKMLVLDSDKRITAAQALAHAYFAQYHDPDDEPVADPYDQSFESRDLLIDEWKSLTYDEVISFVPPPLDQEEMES
Serine/threonine-protein kinase 26, sequence (Q9P289 2-416 limits assumed): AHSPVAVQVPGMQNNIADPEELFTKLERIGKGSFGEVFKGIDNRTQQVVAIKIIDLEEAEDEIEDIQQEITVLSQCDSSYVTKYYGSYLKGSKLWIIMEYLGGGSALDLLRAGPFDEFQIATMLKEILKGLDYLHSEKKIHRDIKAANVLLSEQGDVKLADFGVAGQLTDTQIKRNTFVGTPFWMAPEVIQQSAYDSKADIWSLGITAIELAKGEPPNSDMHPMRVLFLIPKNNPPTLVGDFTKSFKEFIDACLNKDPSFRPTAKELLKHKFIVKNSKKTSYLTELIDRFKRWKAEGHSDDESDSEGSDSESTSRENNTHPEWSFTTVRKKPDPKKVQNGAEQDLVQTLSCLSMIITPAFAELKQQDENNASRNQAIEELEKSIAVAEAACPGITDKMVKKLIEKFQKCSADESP
Dual specificity mitogen-activated protein kinase kinase 2 (Homo sapiens), sequence (P36507 whole entry): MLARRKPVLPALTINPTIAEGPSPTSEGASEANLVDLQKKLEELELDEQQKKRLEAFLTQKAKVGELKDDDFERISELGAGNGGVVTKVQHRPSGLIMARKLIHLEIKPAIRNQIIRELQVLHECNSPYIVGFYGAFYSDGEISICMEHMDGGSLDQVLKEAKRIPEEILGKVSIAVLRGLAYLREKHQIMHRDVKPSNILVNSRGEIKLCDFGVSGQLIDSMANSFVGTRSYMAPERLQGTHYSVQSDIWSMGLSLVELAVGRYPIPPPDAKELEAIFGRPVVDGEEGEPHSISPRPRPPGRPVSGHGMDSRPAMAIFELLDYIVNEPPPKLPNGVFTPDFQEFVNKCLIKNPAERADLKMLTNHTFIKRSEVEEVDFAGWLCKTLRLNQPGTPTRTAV
Serine/threonine-protein kinase 38-like (Homo sapiens), sequence (Q9Y2H1 2-464 limits assumed): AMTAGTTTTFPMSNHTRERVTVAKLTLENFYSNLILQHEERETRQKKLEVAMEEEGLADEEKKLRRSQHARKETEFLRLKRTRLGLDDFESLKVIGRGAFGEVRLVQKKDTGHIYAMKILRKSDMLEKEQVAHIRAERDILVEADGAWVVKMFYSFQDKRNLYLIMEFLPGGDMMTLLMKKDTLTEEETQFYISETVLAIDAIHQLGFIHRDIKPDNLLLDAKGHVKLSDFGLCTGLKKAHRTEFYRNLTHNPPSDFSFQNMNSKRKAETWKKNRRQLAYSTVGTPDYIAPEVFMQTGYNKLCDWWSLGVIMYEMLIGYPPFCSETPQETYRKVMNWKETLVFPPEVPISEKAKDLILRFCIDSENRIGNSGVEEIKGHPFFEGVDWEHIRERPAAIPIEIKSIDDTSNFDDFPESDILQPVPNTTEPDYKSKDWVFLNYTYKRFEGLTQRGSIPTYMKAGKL

SMILES: C=CC(=O)Nc1cc(-n2c(=O)ccc3cnc4ccc(-c5ccc(NS(C)(=O)=O)cc5)cc4c32)ccc1C
- % of control ([1]; at 1 µM): 98%
- % of control ([1]; at 10 µM): 28%

SMILES: Cc1cc(F)c(C(=O)Nc2cccc(-c3nncn3C(C)C)n2)cc1-n1cnc(C2CC2)c1
- % of control [2]: 99%

SMILES: Nc1cnc(N2CCc3cc(S(=O)(=O)Nc4c(F)cc(Cl)cc4F)cc(N4CCCC4=O)c32)nc1 [TP-020n]
- % of control [3]: 100%
- % of control [4]: 99%

SMILES: O=C(NOC[C@H](O)CO)c1ccc(F)c(F)c1Nc1ccc(I)cc1F
- % of control [5]: 0.2%

SMILES: COc1cc(Nc2nc(C)cc(-c3cnn4nc(OC)ccc34)n2)cc(C(F)(F)F)c1
- % of control [6]: 100%

SMILES: CCc1cccc(CC)c1NC(=O)c1nn(C)c2c1CCc1cnc(Nc3ccc(C(=O)NC4CCN(C)CC4)cc3OC(F)(F)F)nc1-2
- IC50 [7]: > 10 µM

SMILES: N#Cc1cccc(-c2c[nH]c3ncnc(N4CCOCC4)c23)c1
- % of control [8]: 7%

SMILES: CN(C)CCOc1ccc(-c2nc(-c3ccncc3)c(-c3ccc4c(c3)CC/C4=N\O)[nH]2)cc1
- % of control [9]: 92%
- % of control [10]: 100%
